Entries after “also recorded” stand apart in the source; their conditions may differ.
Test system: cardiac sympathetic neurons of the isolated rat heart
Assay: Kinetics of [11C]phenethylguanidines in isolated perfused working rat heart (neuronal uptake and clearance)
Details: for half-life / Major Clearance Rate T1/2: rat
Source text: To evaluate radiolabeled phenethylguanidines as imaging agents for nuclear medicine, several [^11C]-labeled phenethylguanidines were synthesized and initial bioevaluations of these compounds performed using an isolated rat heart preparation. […] [^11C]-labeling was used to initially assess the imaging properties of these compounds for the following reasons. A radiosynthetic method for making [^11C]guanidines (see, e.g., Westerberg, G. and Langstrom, B. (1997) J. Labeled Compds. Radiopharm. 39:525-529; herein incorporated by reference in its entirety), allowed efficient synthesis and evaluation of these compounds.
The present invention is not limited to a particular mechanism. Indeed, an understanding of the mechanism is not necessary to practice the present invention. […] Provided below is a detailed description of how these specific kinetic properties offer a significant advantage over currently available sympathetic nerve radiotracers.

Molecule	Major Clearance Rate T1/2	Neuronal Uptake Rate Kup (isolated rat heart)	neuronal retention / clearance (in words) (isolated rat heart)	further results
2-[^18F]fluoro-2-deoxy-D-glucose [FDG, reference compound]	–	–	–	myocardial uptake rate (isolated rat heart, 10 mM glucose, no insulin, 10 min constant infusion, FIG. 5): 0.31 ml/min/g wet
CNC[C@H](O)c1ccc(O)c(O)c1 [EPI, [^11C]epinephrine, reference compound]	–	0.60 mL/min/g	–	half-life: 26.3 h
C[C@H](N[11CH3])[C@H](O)c1cccc(O)c1 [HED, [^11C]meta-hydroxyephedrine, reference compound]	–	2.35 mL/min/g	–	–
N=[11C](N)NCCc1ccccc1 [I-1, [^11C]phenethylguanidine]	3.33 h	1.56 mL/min/g	–	–
N=[11C](N)NC[C@H](O)c1ccccc1 [I-2, [^11C](−)-β-hydroxyphenethylguanidine]	19.3 h	0.42 mL/min/g	–	–
COc1ccc(CCN[11C](=N)N)cc1 [I-3, [^11C]para-methoxy-phenethylguanidine]	2.28 h	0.73 mL/min/g	–	–
N=[11C](N)NCCc1cccc(O)c1 [I-4, [^11C]meta-hydroxyphenethylguanidine]	trapped	2.12 mL/min/g	efficient vesicular storage; also recorded: very long retention times	neuronal uptake rate (in words) (isolated rat heart): fast and rapid
N=[11C](N)NCCc1ccc(O)cc1 [I-5, [^11C]para-hydroxyphenethylguanidine]	48.13 h	1.92 mL/min/g	efficient vesicular storage; also recorded: very long retention times	neuronal uptake rate (in words) (isolated rat heart): fast and rapid; neuronal retention / clearance (in words) (isolated rat heart, listed as PHPG): well retained
N=[11C](N)NCCc1ccc(O)c(O)c1 [I-6, [^11C]3,4-dihydroxyphenethylguanidine]	23.52 h	1.07 mL/min/g	–	–
N=[11C](N)NCC(O)c1cccc(O)c1 (stereo not drawn) [I-7, N-[^11C]guanyl-meta-octopamine]	216.67 h	0.28 mL/min/g	very long neuronal retention times	neuronal uptake rate (in words) (isolated rat heart): slow and slower than all currently used tracers; neuronal uptake rate (isolated rat heart, 10 min constant infusion, FIG. 5): 0.28 ml/min/g wet; neuronal retention / clearance (in words) (isolated rat heart, listed as GMO): well retained; also recorded: neuronal trapping of GMO is more efficient than the myocardial trapping of FDG
N=[11C](N)NC[C@H](O)c1ccc(O)c(O)c1 [I-8, N-[^11C]guanyl-norepinephrine]	–	0.09 mL/min/g	–	–
C[C@H](N[11C](=N)N)[C@H](O)c1cccc(O)c1 [I-9, N-[^11C]guanyl-(−)-metaraminol]	20.18 h	0.08 mL/min/g	very long neuronal retention times	neuronal uptake rate (in words) (isolated rat heart): slow and slower than all currently used tracers
NC(N)=NCc1cccc(I)c1 [MIBG, [^11C]meta-iodobenzylguanidine, reference compound]	–	3.65 mL/min/g	–	neuronal uptake rate (in words) (isolated rat heart): very rapid
NC[C@H](O)c1ccc(O)c(O)c1 [NE, [^3H]norepinephrine, reference compound]	–	4.44 mL/min/g	–	half-life: > 16.7 h
CNC[C@H](O)c1cccc(O)c1 [PHEN, [^11C]phenylephrine, reference compound]	–	0.72 mL/min/g	–	half-life: 1.63 h

Now from value to molecule, other results behind:

Major Clearance Rate T1/2	Molecule	Neuronal Uptake Rate Kup (isolated rat heart)	neuronal retention / clearance (in words) (isolated rat heart)	further results
1.93 h	N=[11C](N)NCCc1cccc(F)c1 [II-1, [^11C]meta-fluorophenethylguanidine]	0.24 mL/min/g	–	–
4.43 h	N=[11C](N)NCCc1ccc(F)cc1 [II-2, [^11C]para-fluorophenethylguanidine]	0.63 mL/min/g	–	–
2.25 h	N=[11C](N)NCCc1ccccc1F [II-3, [^11C]ortho-fluorophenethylguanidine]	1.76 mL/min/g	–	–
trapped	N=[11C](N)NCCc1ccc(F)c(O)c1 [II-4, [^11C]para-fluoro-meta-hydroxy-phenethylguanidine]	0.77 mL/min/g	very long neuronal retention times	–
20.12 h	N=[11C](N)NCCc1cc(O)ccc1F [II-5, [^11C]ortho-fluoro-meta-hydroxy-phenethylguanidine]	0.54 mL/min/g	very long neuronal retention times	–
2.38 h	N=[11C](N)NCCc1cccc(I)c1 [III-1, [^11C]meta-iodophenethylguanidine]	1.10 mL/min/g	approximately the same rate as MIBG	neuronal uptake rate, times slower than MIBG (isolated rat heart, relative to MIBG): around 3 times
